pIC50: −log10 of the molar value. The source made the active and inactive calls. The rule behind the calls is not given here.
Assays:
[1] = Toxicity in mouse administered as single po dose; assay type: organism-based; details: in vivo
[2] = Half life in dog liver microsomes; assay type: ADME, Canis lupus familiaris, microsome
[3] = molecular target: Cytochrome P450 2C19 (Homo sapiens, UniProt P33261); experiment: Inhibition of CYP2C19 (unknown origin); assay type: ADME
[4] = Stability in human plasma assessed as parent compound remaining after 8 hrs relative to initial time; assay type: ADME, cell-free; details: read-out: Stability
[5] = Unbound fraction in plasma (unknown origin); assay type: ADME, cell-free
[6] = Half life in mouse liver microsomes; assay type: ADME, microsome
[7] = Half life in human liver microsomes; assay type: ADME, microsome
[8] = Protein binding in plasma (unknown origin); assay type: ADME, cell-free; details: read-out: PPB (converted)
[9] = Stability in human plasma assessed as parent compound remaining after 24 hrs relative to initial time; assay type: ADME, cell-free; details: read-out: Stability
[10] = molecular target: Cytochrome P450 2C9 (Homo sapiens, UniProt P11712); experiment: Inhibition of CYP2C9 (unknown origin); assay type: ADME
Chain of Cytochrome P450 2C9 (P11712 whole entry): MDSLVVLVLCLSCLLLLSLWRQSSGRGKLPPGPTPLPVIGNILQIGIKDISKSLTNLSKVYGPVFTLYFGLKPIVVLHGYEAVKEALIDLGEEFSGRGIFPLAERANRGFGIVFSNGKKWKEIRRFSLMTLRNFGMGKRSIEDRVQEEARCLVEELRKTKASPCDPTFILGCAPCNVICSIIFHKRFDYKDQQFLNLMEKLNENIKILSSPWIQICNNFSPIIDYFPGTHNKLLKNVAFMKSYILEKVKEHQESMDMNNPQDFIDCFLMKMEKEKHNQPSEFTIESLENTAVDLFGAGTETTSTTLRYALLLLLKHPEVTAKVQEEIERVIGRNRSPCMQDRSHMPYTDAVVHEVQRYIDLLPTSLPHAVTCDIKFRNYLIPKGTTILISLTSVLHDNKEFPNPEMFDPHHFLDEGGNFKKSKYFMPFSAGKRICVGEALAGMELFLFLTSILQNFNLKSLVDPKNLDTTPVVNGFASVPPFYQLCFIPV

[11] = tested on: SNU-16; experiment: Antitumor activity against human SNU16 cells xenografted in nude BALB/c mouse assessed as tumor growth inhibition relative to control; assay type: functional
[12] = molecular target: Cytochrome P450 2D6 (Homo sapiens, UniProt P10635); experiment: Inhibition of CYP2D6 (unknown origin); assay type: ADME
Chain of Cytochrome P450 2D6 (P10635 whole entry): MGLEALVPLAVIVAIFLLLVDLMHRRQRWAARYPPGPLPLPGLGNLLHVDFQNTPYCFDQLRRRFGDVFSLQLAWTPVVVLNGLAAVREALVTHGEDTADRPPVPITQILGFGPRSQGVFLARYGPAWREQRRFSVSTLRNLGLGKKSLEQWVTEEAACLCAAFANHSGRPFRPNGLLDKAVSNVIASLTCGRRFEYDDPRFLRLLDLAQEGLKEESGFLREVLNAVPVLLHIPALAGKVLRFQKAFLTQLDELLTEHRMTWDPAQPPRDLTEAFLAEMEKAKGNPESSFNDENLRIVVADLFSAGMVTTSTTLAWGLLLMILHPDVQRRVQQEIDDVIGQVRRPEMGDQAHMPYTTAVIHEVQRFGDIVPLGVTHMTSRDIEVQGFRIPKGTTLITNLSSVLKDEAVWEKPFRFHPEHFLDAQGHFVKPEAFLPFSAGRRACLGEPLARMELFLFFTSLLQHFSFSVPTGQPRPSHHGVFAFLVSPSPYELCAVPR

[13] = Stability in human plasma assessed as parent compound remaining after 75 mins relative to initial time; assay type: ADME, cell-free; details: read-out: Stability
[14] = Drug recovery in plasma (unknown origin); assay type: ADME, cell-free
[15] = Stability in human plasma assessed as parent compound remaining after 4 hrs relative to initial time; assay type: ADME, cell-free; details: read-out: Stability
[16] = tested on: A2780; experiment: Antitumor activity against human A2780 cells xenografted in nude BALB/c mouse assessed as tumor growth inhibition at 20 mg/kg, po qd measured up to 12 days post dose; assay type: functional, organism-based
[17] = molecular target: Cytochrome P450 3A4 (Homo sapiens, UniProt P08684); experiment: Inhibition of CYP3A4 (unknown origin); assay type: ADME
Chain of Cytochrome P450 3A4 (P08684 whole entry): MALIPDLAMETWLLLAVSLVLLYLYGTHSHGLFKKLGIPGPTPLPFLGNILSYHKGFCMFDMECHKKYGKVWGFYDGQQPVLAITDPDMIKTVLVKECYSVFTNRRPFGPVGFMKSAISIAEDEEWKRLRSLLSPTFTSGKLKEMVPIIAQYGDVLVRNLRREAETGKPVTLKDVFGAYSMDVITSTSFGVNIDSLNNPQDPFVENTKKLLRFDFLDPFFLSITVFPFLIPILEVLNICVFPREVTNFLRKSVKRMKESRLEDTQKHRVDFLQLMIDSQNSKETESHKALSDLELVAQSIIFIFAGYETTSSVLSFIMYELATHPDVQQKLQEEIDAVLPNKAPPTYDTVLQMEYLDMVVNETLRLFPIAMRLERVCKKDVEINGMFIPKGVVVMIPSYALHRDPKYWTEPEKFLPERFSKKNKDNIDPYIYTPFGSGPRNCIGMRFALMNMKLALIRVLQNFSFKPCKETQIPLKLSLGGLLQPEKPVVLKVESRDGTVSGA

[18] = Half life in rat liver microsomes; assay type: ADME, microsome
[19] = Stability in human plasma assessed as parent compound remaining after 2 hrs relative to initial time; assay type: ADME, cell-free; details: read-out: Stability
[20] = tested on: Mus musculus; experiment: Toxicity in nude BALB/c mouse xenografted with human A2780 cells assessed as change in body weight at 20 mg/kg, po qd measured up to 12 days post dose; assay type: organism-based; details: in vivo, 288 h
[21] = molecular target: T1, Cytochrome P450 1A2 (Homo sapiens, UniProt P05177); experiment: Inhibition of CYP1A2 (unknown origin); assay type: ADME
T1 sequence (P05177 whole entry): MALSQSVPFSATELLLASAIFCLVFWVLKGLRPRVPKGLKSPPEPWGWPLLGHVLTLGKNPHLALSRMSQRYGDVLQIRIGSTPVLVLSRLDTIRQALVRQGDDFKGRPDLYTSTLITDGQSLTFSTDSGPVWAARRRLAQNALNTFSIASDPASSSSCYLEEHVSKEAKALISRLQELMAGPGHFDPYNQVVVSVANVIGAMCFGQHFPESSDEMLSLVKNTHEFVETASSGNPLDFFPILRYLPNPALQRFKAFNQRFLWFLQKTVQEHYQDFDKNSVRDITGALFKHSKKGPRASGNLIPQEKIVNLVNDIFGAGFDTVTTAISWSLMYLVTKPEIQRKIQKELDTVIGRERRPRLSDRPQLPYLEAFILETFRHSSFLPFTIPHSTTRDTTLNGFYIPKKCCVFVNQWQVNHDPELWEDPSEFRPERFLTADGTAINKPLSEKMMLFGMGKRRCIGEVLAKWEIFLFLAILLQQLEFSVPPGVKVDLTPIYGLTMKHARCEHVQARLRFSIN

[22] = Toxicity in mouse; assay type: organism-based; details: in vivo
[23] = Efflux ratio of apparent intrinsic permeability in human Caco2 cells after 120 mins by mass spectrometry; assay type: ADME, cell-based; details: Caco-2
[24] = in vitro; details: human, Caco-2
Description: Apparent intrinsic permeability in human Caco2 cells from basolateral to apical side after 120 mins by mass spectrometry

[25] = in vitro; details: human, Caco-2; remark: listed apart in the source
Description: Apparent intrinsic permeability in human Caco2 cells from apical to basolateral side after 120 mins by mass spectrometry

[26] = Tmax in CD-1 mouse administered as single po dose by mass spectrometry; assay type: ADME, organism-based; details: in vivo
[27] = Tmax in rat administered as single po dose by mass spectrometry; assay type: ADME, organism-based; details: in vivo

Chain of Cytochrome P450 2C19 (P33261 whole entry): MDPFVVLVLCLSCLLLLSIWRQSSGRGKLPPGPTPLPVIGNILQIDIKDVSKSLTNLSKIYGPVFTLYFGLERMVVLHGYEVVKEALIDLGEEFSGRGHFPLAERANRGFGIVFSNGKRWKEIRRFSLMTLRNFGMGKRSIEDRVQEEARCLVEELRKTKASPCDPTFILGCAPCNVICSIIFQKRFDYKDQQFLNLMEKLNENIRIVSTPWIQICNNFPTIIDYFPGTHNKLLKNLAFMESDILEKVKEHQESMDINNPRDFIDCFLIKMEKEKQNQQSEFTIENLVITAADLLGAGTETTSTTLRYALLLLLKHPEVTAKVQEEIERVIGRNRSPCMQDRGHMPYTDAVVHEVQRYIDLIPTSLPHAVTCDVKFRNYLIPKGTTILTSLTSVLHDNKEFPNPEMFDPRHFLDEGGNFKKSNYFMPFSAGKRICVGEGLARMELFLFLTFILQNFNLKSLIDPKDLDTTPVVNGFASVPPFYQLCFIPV

Cc1ncc(C(=O)Nc2ccc(-c3ccsc3)cn2)cn1
MTD [1]: ≤ 20 mg/kg
half-life [2]: 35.2 min
pIC50 [3]: < 4.52
remaining at 8 h [4]: 71.6%
fraction unbound [5]: 0.0507
half-life [6]: 27.3 min
half-life [7]: 7.5 min
fraction unbound [8]: 0.0507
remaining at 24 h [9]: 49%
pIC50 [10]: < 4.52
TGI [11]: 135%
pIC50 [12]: < 4.52
remaining at 1.25 h [13]: 91.7%
Drug recovery [14]: 93.56%
remaining at 4 h [15]: 86.9%
TGI [16]: Active
pIC50 [17]: < 4.52
half-life [18]: 25.9 min
remaining at 2 h [19]: 92.2%
Activity [20]: Non-Toxic
pIC50 [21]: < 4.52
MTD [22]: ≤ 6 mg/kg

CNC(=C[N+](=O)[O-])NCCSCc1ccc(CN(C)C)o1 [RANITIDINE]
efflux ratio at 2 h [23]: 3.24
Papp B→A at 2 h [24]: 2.83 ×10⁻⁶ cm/s
Papp A→B at 2 h [25]: 0.87 ×10⁻⁶ cm/s

COC(=O)c1ccccc1-c1c2ccc(=N)cc-2oc2cc(N)ccc12.Cl [RHODAMINE123]
efflux ratio at 2 h [23]: 11.7
Papp B→A at 2 h [24]: 7.17 ×10⁻⁶ cm/s
Papp A→B at 2 h [25]: 0.61 ×10⁻⁶ cm/s

Cc1ccc(C(=O)Nc2ccc(-c3cccc(C4COC4)c3)cn2)cn1
TGI [11]: 69%
Tmax [26]: ≤ 15 min
MTD [22]: ≤ 6 mg/kg

CC(C)[N+](C)(CCOC(=O)C1c2ccccc2Oc2ccccc21)C(C)C [PROPANTHELINE]
remaining at 1.25 h [13]: 13.9%
remaining at 4 h [15]: 0.34%
remaining at 2 h [19]: 5.16%

Cc1ncc(C(=O)Nc2ccc(-c3cccc(OC4CC4)c3)cn2)cn1
MTD [1]: ≤ 20 mg/kg
half-life [2]: 20.6 min
pIC50 [3]: < 4.52
remaining at 8 h [4]: 74.1%
fraction unbound [5]: 0.0061
half-life [6]: 13.7 min
half-life [7]: 144 min
fraction unbound [8]: 0.0061
remaining at 24 h [9]: 89.7%
pIC50 [10]: < 4.52
TGI [11]: 100%
pIC50 [12]: < 4.52
remaining at 1.25 h [13]: 89.4%
Drug recovery [14]: 79.64%
remaining at 4 h [15]: 91.5%
TGI [16]: Active
pIC50 [17]: < 4.52
Tmax [26]: ≤ 15 min
half-life [18]: 10.9 min
remaining at 2 h [19]: 81.1%
Activity [20]: Non-Toxic
pIC50 [21]: < 4.52
MTD [22]: ≤ 6 mg/kg
Tmax [27]: 15 min

CC(C)NCC(O)COc1cccc2ccccc12 (stereo unspecified) [PROPRANOLOL]
efflux ratio at 2 h [23]: 0.99
Papp B→A at 2 h [24]: 21.1 ×10⁻⁶ cm/s
Papp A→B at 2 h [25]: 21.2 ×10⁻⁶ cm/s
